{
  "source": "patent US20060168668A1",
  "about": "“Phosphodiesterase 2a and methods of use” (Memory Pharmaceuticals Corporation, priority 2003, published 2006)",
  "format_in_all_cases": "biochemical",
  "key": {"recombinant human PDE2A4 [1]": {"molecular_target": "T1, recombinant human PDE2A4 (Homo sapiens, UniProt O00408, P38L/T213A/V664A)", "T1 construct": "made in house; host or cells: QM-7 cells (quail myoblast line), transient transfection, crude cell lysate", "T1 sequence (O00408 1-932 isoform O00408-4 P29L/T204A/V655A)": "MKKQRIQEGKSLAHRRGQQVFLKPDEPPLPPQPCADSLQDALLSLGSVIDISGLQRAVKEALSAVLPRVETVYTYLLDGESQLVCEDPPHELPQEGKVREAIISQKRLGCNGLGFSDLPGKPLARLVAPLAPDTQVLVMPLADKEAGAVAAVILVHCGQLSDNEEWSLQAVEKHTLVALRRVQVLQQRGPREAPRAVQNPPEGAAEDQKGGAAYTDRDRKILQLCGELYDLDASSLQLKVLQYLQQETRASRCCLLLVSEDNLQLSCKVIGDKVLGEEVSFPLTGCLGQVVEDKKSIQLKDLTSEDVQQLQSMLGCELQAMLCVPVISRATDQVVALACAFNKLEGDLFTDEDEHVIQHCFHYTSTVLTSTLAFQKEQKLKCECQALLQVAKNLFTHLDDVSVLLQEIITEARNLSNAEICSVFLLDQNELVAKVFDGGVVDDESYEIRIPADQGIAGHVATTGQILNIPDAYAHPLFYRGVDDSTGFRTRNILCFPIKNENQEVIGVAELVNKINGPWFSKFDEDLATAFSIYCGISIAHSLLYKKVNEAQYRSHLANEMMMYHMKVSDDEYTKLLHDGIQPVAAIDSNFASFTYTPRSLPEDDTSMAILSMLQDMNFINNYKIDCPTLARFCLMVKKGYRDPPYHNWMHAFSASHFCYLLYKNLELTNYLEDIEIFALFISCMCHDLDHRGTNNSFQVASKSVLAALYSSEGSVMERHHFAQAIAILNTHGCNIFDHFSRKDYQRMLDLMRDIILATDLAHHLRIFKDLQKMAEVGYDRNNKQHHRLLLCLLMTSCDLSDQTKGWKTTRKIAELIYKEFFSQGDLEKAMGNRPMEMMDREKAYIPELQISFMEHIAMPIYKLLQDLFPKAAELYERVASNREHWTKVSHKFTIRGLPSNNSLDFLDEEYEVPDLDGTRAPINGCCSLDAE", "assay": "Inhibition of recombinant human PDE2A4 enzyme activity (QM7 lysate)", "conditions": "QM7 lysate containing recombinant human PDE2A4", "method": "FIG. 3. EHNA inhibition of hsPDE2A4 activity. QM7 lysate containing recombinant human PDE2A4 was used in inhibition assay with increased concentration of inhibitors (EHNA and Rolipram; 10^−9-10^−[…]). The data and graph were analyzed and generated using Prism software.\n(§1) To express in active form, human PDE2A4 cDNA was cloned downstream of the CMV promoter into pcDNA3.1/V5-His-TOPO vector, and the plasmid was transiently transfected into QM-7 cells by lipofectamine-plus reagent (Invitrogen). Forty-eight hours after the transfection, the QM-7 cells were lysed in buffer containing 50 mM Tris/HCl, 10 mM NaCl, 5 mM EGTA, 1 mM EDTA, 1 mM DTT and proteinase inhibitor cocktail (Roche). The cell lysate was used as a source for recombinant hsPDE2A4 enzyme.\n(§2) The enzyme activity assay was performed according to Thompson et al, Ann N Y Acad Sci, 185:36-41 (1971) and Alvarez et al, Anal Biochem, 203:76-82 (1992) in the presence of 50 mM Tris/HCl, pH 8.0, 5 mM MgCl2, 4 mM 2-mercaptoethanol and 0.3 mg/ml BSA. […] The experiments were performed in duplicates for each substrate concentration. The Km and Vmax were calculated with Michaelis-Menten equation on Prism software."}, "recombinant human PDE2A4 [2]": {"molecular_target": "T1, recombinant human PDE2A4", "assay": "Enzyme activity assay, Km and Vmax of human PDE2A4 for cAMP and cGMP", "method": "as §1, §2"}, "recombinant human PDE2A4 [3]": {"molecular_target": "T1, recombinant human PDE2A4", "assay": "cGMP stimulation of hsPDE2A4 cAMP-hydrolyzing activity", "conditions": "10 μM cGMP; cAMP substrate 30 μM ([3H]-cAMP/cAMP)", "method": "FIG. 4. cGMP stimulation of hsPDE2A4 activity. QM7 lysate containing recombinant human PDE2A4 was used in stimulation assay. […] The enzyme activities in the absence or presence of 10 μM cGMP were compared. Data analysis was performed using Prism software.\nas §1, §2\nThe enzymatic activity of recombinant human PDE2A4 can be stimulated by cGMP, a unique characteristic for PDE2 gene family (FIG. 4)."}, "[4]": {"conditions": "substrate of human PDE2A4, QM-7 cell lysate, Michaelis-Menten, Prism"}},
  "data": [
    {"compound": "CCCCCCC(C(C)O)n1cnc2c(N)ncnc21", "note": "(stereo not drawn) [EHNA, erythro-9-(2-hydroxy-3-nonyl)adenine]", "values": [
      {"measurement": "IC50", "setting": "recombinant human PDE2A4 [1]; inhibitors 10^−9-10^−4 μM, read-out: IC50, inhibition of enzymatic activity of recombinant human PDE2A4", "result": 1100, "unit": "nM"}
    ]},
    {"compound": "COc1ccc(C2CNC(=O)C2)cc1OC1CCCC1", "note": "(stereo not drawn) [Rolipram]", "values": [
      {"measurement": "inhibitory effect on human PDE2A4 enzyme activity", "setting": "recombinant human PDE2A4 [1]; inhibitors 10^−9-10^−4 μM (FIG. 3)", "result": "no inhibitory effect"}
    ]},
    {"compound": "Nc1nc2c(ncn2[C@@H]2O[C@@H]3COP(=O)(O)O[C@H]3[C@H]2O)c(=O)[nH]1", "note": "[cGMP, cyclic guanosine 5′ monophosphate]", "values": [
      {"measurement": "affinity of human PDE2A4 for cGMP relative to cAMP", "setting": "recombinant human PDE2A4 [2]; cGMP versus cAMP", "result": "~2", "unit": "fold"},
      {"measurement": "Km", "setting": "recombinant human PDE2A4 [2]; [4]", "result": 17.5, "unit": "µM"},
      {"measurement": "Vmax", "setting": "recombinant human PDE2A4 [2]; [4]", "result": "Vmax = 334.4 ± 16.0 pmol/mg/min"},
      {"measurement": "stimulation of activity for hydrolyzing cAMP", "setting": "recombinant human PDE2A4 [3]", "result": "elevated more than three-fold"}
    ]}
  ]
}
